Reference: patent publication US5998420A, “Method for treating Mycobacterium tuberculosis” (priority 1996, dated 1999)
Converted amounts (≈) assume the structure as drawn. Read-outs that look alike come from different tables or passages of the source.

Tests used:
[1] = tested on: Mycobacterium tuberculosis strain RC1; assay: MIC by agar dilution, M. tuberculosis strain RC1; format: cell-based; settings: for MIC: Mycobacterium tuberculosis, RC1; for effect of LIV addition on toxicity, strain RC1: strain RC1, LIV added
[2] = tested on: E. coli ketol-acid reductoisomerase; settings: cited from earlier work
[3] = tested on: yeast isopropylmalate isomerase; settings: cited from earlier work; for inhibition of yeast isopropylmalate isomerase, 19 vs 21: fully ionized, nitronate forms
yeast = settings: minimal media; cited from earlier work
[4] = cited from earlier work; for decomposition (retro-aldol): in the presence of divalent metals, unpublished observation
plants = settings: leucine alone; cited from earlier work
[5] = tested on: Mycobacterium tuberculosis; settings: Heifets L. B. (1994); cited from earlier work
[6] = tested on: Mycobacterium tuberculosis; settings: cited from earlier work; for change in final colony forming units vs starting: Klemens et al., 1994
[7] = tested on: ketol-acid reductoisomerase from carrot (plant); settings: cited from earlier work
[8] = tested on: ketol-acid reductoisomerase from Klebsiella pneumoniae; settings: cited from earlier work
[9] = tested on: ketol-acid reductoisomerase; settings: cited from earlier work
E. coli = settings: minimal media; cited from earlier work
K. pneumoniae = settings: cited from earlier work
carrot cells = settings: branched chain amino acids; cited from earlier work
[10] = tested on: Mycobacterium tuberculosis strain ATCC35801; assay: MIC by agar dilution, M. tuberculosis strain ATCC35801; format: cell-based; settings: for MIC: Mycobacterium tuberculosis, ATCC35801; for effect of LIV addition on toxicity, strain ATCC35801: strain ATCC35801, LIV added
[11] = tested on: E. coli ketol-acid reductoisomerase; settings: presence of Mg2+ and NADPH; read-out: overall dissociation constant; cited from earlier work
[12] = tested on: acetolactate synthase from E. coli; settings: 1 mM; cited from earlier work
[13] = tested on: dihydroxy acid dehydratase from E. coli; settings: 1 mM; cited from earlier work
[14] = tested on: Mycobacterium tuberculosis strain ATCC35801; assay: Tuberculosis mouse model study, colony forming units in lungs and spleens; format: in vivo, mice
[15] = format: in vivo, CD-1 female mice; settings: 500 mg/kg body weight subcutaneous each day for 30 days
Procedure: To determine if high doses of sulfometuron methyl would be toxic to mice, a 20 mg/ml solution of this compound was prepared in phosphate buffered saline and 0.5 ml of this was injected subcutaneously into 4 day-old CD-1 female mice each day for 30 days. This dose corresponded to 500 mg sulfometuron methyl/kg body weight of the mouse. After the 30-day course of treatment the mice were sacrificed and the internal organs were examined by a veterinarian trained in laboratory animal care. The organs were compared to a control group that received injections of phosphate buffered saline.

[16] = leucine, isoleucine, and valine added (+LIV), read-out: MIC +LIV, strain RC1
[17] = no branched chain amino acids (-LIV), read-out: MIC -LIV, strain RC1
[18] = leucine, isoleucine, and valine added (+LIV)
[19] = no branched chain amino acids (-LIV)

Q: Which MIC [1, 16] does the source give for `COc1nc(C)nc(NC(=O)NS(=O)(=O)c2ccccc2Cl)n1` [Chlorsulfuron] here?
A: > 35 µg/mL

Q: What about the MIC [1, 17] of the same compound?
A: 4.4 µg/mL (≈ 12.3 µM)

Q: What about the “effect of LIV addition on toxicity, strain RC1” value [1] of the same compound?
A: completely reversed the effects

Q: With `O=C(O)C(=O)N(O)Cc1ccccc1` [Compound 13] as the compound, how does the “association rate for the inhibitor, benzyl (13) vs hydrogen (9) on nitrogen” value ([2]; relative to 9) read?
A: increased the association rate for the inhibitor modestly

Q: Which “potency relative to 13” value ([2]; 12-carbon chain on nitrogen, Aulabaugh & Schloss, unpublished) does the source give for `CCCCCCCCCCCCN(O)C(=O)C(=O)O` [Compound 14] here?
A: comparable in potency to 13

Q: Which “inhibition of yeast isopropylmalate isomerase” value [3] does the source give for `CC(C)C(C(O)C(=O)O)[N+](=O)[O-]` (centres unmarked) [Compound 19] here?
A: potent inhibitors

Q: And the “inhibition of yeast isopropylmalate isomerase, 19 vs 21” value [3]?
A: comparable

Q: And the growth of yeast (yeast)?
A: no affect

Q: What about the “decomposition (retro-aldol)” value [4] of the same compound?
A: rapid rate

Q: With `CC(C)C(O)(C[N+](=O)[O-])C(=O)O` (centres unmarked) [Compound 20] as the compound, how does the “inhibition of yeast isopropylmalate isomerase” value [3] read?
A: potent inhibitors

Q: And the growth of yeast (yeast)?
A: no affect

Q: What about the “decomposition (retro-aldol)” value [4] of the same compound?
A: rapid rate

Q: With `O=C(O)C1(O)CCCC1[N+](=O)[O-]` (centres unmarked) [Compound 21] as the compound, how does the “inhibition of yeast isopropylmalate isomerase, 19 vs 21” value [3] read?
A: comparable

Q: What about the “inhibition of isopropylmalate isomerase, 21 vs 19” value ([3]; physiological conditions (pH 7)) of the same compound?
A: much more potent inhibitor than 19

Q: And the “reversal of herbicidal activity” value (plants)?
A: reversed by leucine alone

Q: What about the “stability of the molecule” value ([4]; cyclopentane ring of 21) of the same compound?
A: insures stability of the molecule

Q: Which “MIC of first-line anti-tuberculosis drugs” value [5] does the source give for `CC[C@@H](CO)NCCN[C@@H](CC)CO` [Ethambutol] here?
A: 2 µg/mL

Q: What about the “change in final colony forming units vs starting” value [6] of the same compound?
A: did not cause a decrease

Q: Which results are given for `CP(C)(=O)C(O)C(=O)O` (centres unmarked) [Hoe 704, 2-dimethylphosphinoyl-2-hydroxy acetic acid]?
A: MIC [1, 17]: > 37 µg/mL; inhibition of E. coli ketol-acid reductoisomerase ([2]; Hoe 704): potent and selective inhibitor; inhibition of carrot ketol-acid reductoisomerase [7]: potent and selective inhibitor; inhibition of Klebsiella pneumoniae ketol-acid reductoisomerase [8]: potent and selective inhibitor; inhibition of ketol-acid reductoisomerase [9]: potent inhibitors; growth inhibition of E. coli (E. coli): does not inhibit the growth; reversal of growth inhibitory effect on K. pneumoniae (K. pneumoniae; branched chain amino acids and pantoate): requires both branched chain amino acids and pantoate; growth of K. pneumoniae (K. pneumoniae): does inhibit the growth; reversal of effect on carrot cells in culture (carrot cells): can be reversed by branched chain amino acids alone

Q: What does the source list for `CC(C)N(O)C(=O)C(=O)O` [IpOHA, N-Isopropyloxayl hydroxamate]?
A: MIC [1, 16]: 9.2 µg/mL (≈ 62.5 µM); MIC [1, 17]: 9.2 µg/mL (≈ 62.5 µM); effect of LIV addition on toxicity, strain RC1 [1]: did not reverse the toxic effects; MIC [10, 18]: > 18 µg/mL; MIC [10, 19]: 18 µg/mL (≈ 122 µM); effect of LIV addition on toxicity, strain ATCC35801 [10]: decreased the toxicity; Kd [11]: 0.02 nM; inhibition of ketol-acid reductoisomerase [9]: potent inhibitors; effect on acetolactate synthase [12]: no effect; effect on dihydroxy acid dehydratase [13]: no effect

Q: Which results are given for `NNC(=O)c1ccncc1` [Isoniazid]?
A: MIC of first-line anti-tuberculosis drugs [5]: 0.2 µg/mL; Mycobacterium tuberculosis in spleens and lungs of mice ([6]; 25 mg/kg (Lalande et al., 1993)): significantly reduced; change in final colony forming units vs starting [6]: caused a decrease

Q: For `NC(=O)c1cnccn1` [Pyrazinamide], which “MIC of first-line anti-tuberculosis drugs” value [5] is on record?
A: 16 µg/mL

Q: And the “change in final colony forming units vs starting” value [6]?
A: did not cause a decrease

Q: Which results are given for `CO[C@H]1/C=C/O[C@@]2(C)Oc3c(C)c(O)c4c(O)c(c(/C=N/N5CCN(C)CC5)c(O)c4c3C2=O)NC(=O)/C(C)=C\C=C\[C@H](C)[C@H](O)[C@@H](C)[C@@H](O)[C@@H](C)[C@H](OC(C)=O)[C@@H]1C` [Rifampicin]?
A: MIC of first-line anti-tuberculosis drugs [5]: 0.5 µg/mL; change in final colony forming units vs starting [6]: caused a decrease

Q: Which MIC [1, 16] does the source give for `COC(=O)c1ccccc1S(=O)(=O)NC(=O)Nc1nc(C)cc(C)n1` [SM, sulfometuron methyl] here?
A: 1.8 µg/mL (≈ 4.94 µM)

Q: And the MIC [1, 17]?
A: 0.3 µg/mL (≈ 0.823 µM)

Q: And the MIC ([1]; read-out: minimum inhibitory concentration, medium supplemented with bovine serum albumin)?
A: 4.4 µg/mL (≈ 12.1 µM)

Q: And the MIC ([1]; read-out: minimum inhibitory concentration, medium supplemented with sodium oleate and bovine serum albumin)?
A: 2.2 µg/mL (≈ 6.04 µM)

Q: What about the “effect of LIV addition on toxicity, strain RC1” value [1] of the same compound?
A: partially reduced the toxicity

Q: And the “effect of isoleucine and valine addition on inhibition” value ([1]; strain RC1, isoleucine and valine added)?
A: did not prevent inhibition

Q: And the MIC [10, 18]?
A: > 3.6 µg/mL

Q: What about the MIC [10, 19] of the same compound?
A: 3.6 µg/mL (≈ 9.88 µM)

Q: And the “effect of LIV addition on toxicity, strain ATCC35801” value [10]?
A: prevented the toxicity

Q: What about the “Mann-Whitney U test, 2-tailed P, lungs” value ([14]; 20 mg/kg and 100 mg SM/kg) of the same compound?
A: 0.31

Q: What about the “Mann-Whitney U test, 2-tailed P, lungs” value ([14]; 20 mg/kg and 500 mg SM/kg) of the same compound?
A: 0.002

Q: And the “Mann-Whitney U test, 2-tailed P, lungs” value ([14]; 100 mg/kg and 500 mg SM/kg)?
A: 0.009

Q: And the “mice with more than 200 colony forming units in the lungs” value ([14]; 500 mg sulfometuron methyl/kg, lungs, 31 days)?
A: none

Q: What about the “mice with more than 10^3 colony forming units/spleen, 500 mg/kg” value ([14]; 500 mg sulfometuron methyl/kg, spleen) of the same compound?
A: 13%

Q: And the “growth of Mycobacterium tuberculosis in the lungs” value ([14]; 500 mg/kg body weight)?
A: significantly reduced growth

Q: What about the “Mann-Whitney U test, 2-tailed P, lungs” value ([14]; PBS and 20 mg SM/kg) of the same compound?
A: 0.39

Q: And the “Mann-Whitney U test, 2-tailed P, lungs” value ([14]; PBS and 100 mg SM/kg)?
A: 0.65

Q: And the “Mann-Whitney U test, 2-tailed P, lungs” value ([14]; PBS and 500 mg SM/kg)?
A: 0.03

Q: And the “growth of Mycobacterium tuberculosis in a mouse model system” value ([14]; mouse, in vivo)?
A: inhibites growth

Q: And the “Kruskal-Wallis test, P, spleen” value ([14]; overall difference between four groups, spleen, P < 0.05 considered significant)?
A: > 0.05

Q: And the “mice with more than 10^3 colony forming units in the lungs” value ([14]; pooled groups PBS, 20 mg/kg and 100 mg/kg SM, lungs, 31 days)?
A: 65%

Q: What about the “mice with over 10^3 colony forming units/spleen, pooled groups” value ([14]; pooled groups PBS, 20 mg/kg and 100 mg/kg SM, spleen) of the same compound?
A: 52%

Q: What about the “behavior of the mice and condition of the internal organs vs PBS” value [15] of the same compound?
A: No significant differences

Q: Which “MIC of first-line anti-tuberculosis drugs” value [5] does the source give for `[H]/N=C(/N)N[C@H]1[C@H](O)[C@@H](O)[C@H](O[C@@H]2O[C@@H](C)[C@](O)(C=O)[C@H]2O[C@@H]2O[C@@H](CO)[C@H](O)[C@@H](O)[C@@H]2NC)[C@@H](N/C(N)=N\[H])[C@@H]1O` [Streptomycin] here?
A: 3 µg/mL
